According to patent publication US20260325465A1, “SHP-1 INHIBITORS FOR TREATING CANCER” (MDX MANAGEMENT LLC, priority 2022, published 2026):

Tests used:
p-STAT1 and p-Erk1/2 = experiment: STAT1 and Erk1/2 phosphorylation in macrophages with cancer cell ligation; format: cell-based; details: IFNγ/LPS
Procedure: FIGS. 2A-2G depict that the inhibition of SHP-1 enhances macrophage proinflammatory response, antigen presentation and phagocytosis in a tumor milieu. FIG. 2A and FIG. 2B depict that SHP-1 activity in macrophages is triggered by proinflammatory stimulation and the extracellular cancer cell ligation (“touching”) of macrophages (green bar in FIG. 2A). […] The SHP-2 inhibitor SHP099 (1 μg/ml) was used in assays. FIG. 2C depicts the inhibition of SHP-1 by TPI-1 dose-dependently recovers IFNγ/LPS-induced activation of STAT1 (p-STAT1) and Erk1/2 (p-Erk1/2) de-activated by SHP-1 (red line). FIG. 2D and FIG. 2E depict that the inhibition of SHP-1 in macrophages by TPI-1 enhances production of proinflammatory cytokines (FIG. 2D) and expression of immunogenic antigen presentation machinery (FIG. 2E) by IFNγ/LPS in a tumor milieu. […] The SHP-1 and SHP-2 inhibitors TPI-1 and SHP099, respectively, was used at 1 μg/ml in assays.
Macrophages with high SHP-1 activity in a tumor milieu diminish production of proinflammatory cytokines but produce high IL-10 (see FIG. 2D, blue bar) under stimulation of IFNγ/LPS. This reinforcement of immunosuppression was reversed by SHP-1 inhibition. […]

macrophages = experiment: Macrophage cytokine production under immunosuppressive or proinflammatory stimulation with cancer cell ligation; format: cell-based
Text: FIGS. 6A-6D depict that the inhibition of SHP-1 promotes anti-tumor effects or pro-tumor effects under different circumstances. FIG. 6A depicts that intratumoral macrophages upregulate expression of iRs (Pir-B, Siglec E, F and G, and SIRPα) along with tumor progression to late-stage large sizes. KPC pancreatic tumors of small sizes (<150 mm^3) and those grown to larger sizes (>800 mm^3) were dissociated to single cells, followed by flow cytometry analyses for cell surface protein expression on macrophages (gated F4/80+). FIG. 6B depicts that the inhibition of SHP-1 alone promotes TME immunosuppression. Excised MC38 solid tumor cubes were treated with SHP-1 inhibitor TPI-1 (100 nM) or vehicle (DMSO) in a cell culture setting. After 24 h, tumor secreting cytokines into the culture medium were assayed by ELISA.
The SHP-1 activity in non-therapeutic solid tumors is low (see FIGS. 7A-7D), and this low activity inhibits immunosuppressive receptor signaling. […] In parallel experiments, the same SHP-1 inhibitors augmented macrophage responses to the M1 stimuli IFNγ and LPS and enhanced proinflammatory cytokine production.

[1] = system: KPC pancreatic ductal adenocarcinoma; experiment: TME analysis of KPC pancreatic ductal adenocarcinoma with tumor-focal RT; format: in vivo, murine; details: TPI-1 combined RT
Text: FIGS. 9A-9C depict that the inhibition of SHP-1 by TPI-1 combined with tumor-focal RT reprogram TME of KPC pancreatic ductal adenocarcinoma towards proinflammatory cancer elimination. FIG. 9A depicts treatment scheme and TME analyses on day 5. The table depicts the percentages of various populations within total CD45+ cells. The bar graph depicts the percentages of various populations within total cells.

Study-3: adverse effects = format: in vivo, mice; details: TPI-1 with RT and αPD-L1
Procedure: FIGS. 13A-13E depict pulse-intermittent SHP-1 inhibition (iSHP-1) combination with RT and αPD-L1 treating pancreatic cancer and lung cancer. FIG. 13A depicts experimental schemes. […] Concomitantly, the tumor at the right flank was treated with 8Gy X-ray radiation (RT). After two days of intermittent period, mice on day 4 were treated with the 2nd cycle TPI-1 (i.p.) of the same dose while RT reduced to 4Gy applied to the right flank tumor. The 3rd cycle (day 7) iSHP-1 combination with RT reduced to 2Gy. Anti-PD-L1 Ab (100 μg, i.p.) was given a day following TPI-1 plus RT. FIG. 13B depicts luminescent image tracing KPC-luc and LLC-luc tumor changes post treatment. FIG. 13C depicts record of tumor volume changes and animal survival up to post-treatment 45 days.
Modalities & Dosing Strategy: i) iSHP-1—TPI-1, 3 or 5 mg/kg, i.p., 1× every 3 days. ii) Tumor focal RT: 8Gy-4Gy-2Gy, given to right flank simultaneously with iSHP-1. iii) αPD-L1: 100 μg, i.p., given a day after iSHP-1 plus RT

[2] = Toxicity of pulse-intermittent iSHP-1 in tumor-bearing mice; format: in vivo; details: three cycles of pulse-intermittent iSHP-1 with proinflammatory agents
Text: FIGS. 10A-10B depicts pulse-intermittent iSHP-1 design and treatment schemes. In preclinical tumor models, we have tested three pulsed treatment schemes, pulses-1, -2 and -3, with iSHP-1 given once, twice or three times consecutively (1× per day) at the beginning of each cycle, and an intermittent period of 2-9 days withholding iSHP-1 treatment between cycles. The combination modalities include, but are not limited to, TLR ligands, STING activator, RT, anti-PD-1/L1 immune checkpoint blockade (αPD-1/L1), inflammatory cytokines, chemotherapies and oncolytic viruses. These combination regimens were given together with SHP-1 inhibitor or following separate dosing schedules. Murine solid tumor models with a single tumor or multi-lesions (metastases) in syngeneic mice of different backgrounds were tested. These models were established by engrafting tumors in multiple locations, and iSHP-1 treatment began when a single tumor reaches ≥200 mm^3 in size or the total tumor burden ≥300 mm^3. […]
Throughout treatments, anti-tumoral efficacies (tumor volume changes and survival rates), adverse effects (body weight loss, proteinuria, anemia and clinical discomfort), gross organ toxicity and tissue inflammation due to toxicity, and the TME immune landscape changes were analyzed at different time points and at the terminal point. […]

## O=C1C=CC(=O)C(c2cc(Cl)ccc2Cl)=C1 [TPI-1]
p-STAT1 and p-Erk1/2
  STAT-1 and Erk1/2 phosphorylation: dose-dependently released cancer cell-imposed inhibition
macrophages; IFNγ and LPS
  macrophage production of IL-12 and TNFα: dose-dependently augmented macrophage proinflammatory response with increased IL-12 and TNFα
macrophages; IL-4/13 or IL-10 stimulation
  macrophage production of IL-10 and TGFβ: dose-dependently augmented
[1]
  CD8 T cell expansion and p15E reactivity: marked expansion of CD8 T cells with significant high frequency of reactivity to tumor-specific antigen p15E
  intratumoral macrophage phenotype: proinflammatory phenotype and increased antigen presentation capacity
[1]; day 5
  immune cell infiltration in TME: induced neutrophil (PMN) infiltration, NK cell increases and CD8 T cell expansion
Study-3: adverse effects
  lung inflammation: nor did it incur lung inflammation
  splenomegaly, body weight loss, anemia: did not cause splenomegaly, body weight loss or anemia
[2]
  organ damage, anemia, splenomegaly: did not exhibit serious lung or kidney damage, anemia or splenomegaly
